# Measured values from patent US6747035B2, “1-alkyl or 1-cycloalkyltriazolo[4,3-a]quinazolin-5-ones as phosphodiesterase inhibitors” (Warner-Lambert LLC, priority 2001, dated 2004).
# Tests used:
# PDE4 = PDE4 enzyme inhibition (IC50), enzyme from cytosolic preparation of U937 cell line; assay type: biochemical, human; details: inhibitory activity on PDE4; substrate cAMP 0.25 μM; reaction stopped after 10 minutes
# Description: The capacity of the compounds of formula (I) of the invention to inhibit cyclic nucleotide phosphodiesterases is evaluated by measuring their IC50 (concentration required to inhibit 50% of the enzymatic activity).
# The type 4 phosphodiesterases are obtained from a cytosolic preparation extracted from a cell line U937 of human origin according to the method adapted from T. J. Torphy et al., J. Pharm. Exp. Ther. (1992), 263: 1195-1205.
# The measurement of the enzymatic activity of the various types of PDE, and in particular the PDE4, is carried out according to a method adapted from W. J. Thompson et al., Advances in Cyclic Nucleotide Research, (1979) Vol. 10: 69-92, ed. G. Brooker et al. Raven Press, NY.
# The substrate used is cGMP for PDE1 and PDE5 and cAMP for PDE 3 and PDE 4. The substrate concentration was 0.2 μM for PDE 1, PDE 3 and PDE 5, 0.25 μM for PDE 4.
# The enzymatic reaction was stopped after 1 hour for PDE 1, PDE 3 and PDE 5 and 10 minutes for PDE 4.
# The following table illustrates the inhibitory activity on PDE4 of some of the compounds of formula (I): […]
# [1] = dose of 20 mg as a single intake; cited from earlier work
Structure (SMILES),IC50 (PDE4) [nM],undesirable effects [1]
"CC(=O)Nc1ccc2c(c1)c(=O)n(Cc1ccccc1)c1nnc(C3CCCC3)n21 [Example 2, 7-acetamido-4-benzyl-1-cyclopentyl-4H-[1,2,4]triazolo[4,3-a]quinazolin-5-one]",8500,
"CC(=O)N(C)c1ccc2c(c1)c(=O)n(Cc1ccccc1)c1nnc(C3CCCC3)n21 [Example 5, 4-benzyl-1-cyclopentyl-7-(N-methylacetamido)-4H-[1,2,4]triazolo[4,3-a]quinazolin-5-one]",2700,
"Cc1nnc2n(Cc3ccccc3)c(=O)c3cc(Br)ccc3n12 [Example 11, 4-benzyl-7-bromo-1-methyl-4H-[1,2,4]triazolo[4,3-a]quinazolin-5-one]",1000,
"CC(=O)Nc1ccc2c(c1)c(=O)n(Cc1ccccc1)c1nnc(C)n21 [Example 4, 7-acetamido-4-benzyl-1-methyl-4H-[1,2,4]triazolo[4,3-a]quinazolin-5-one]",31000,
COc1ccc([C@]2(C#N)CC[C@@H](C(=O)O)CC2)cc1OC1CCCC1 [Ariflo],,"significant undesirable effects, such as nausea and vomiting"
"CNc1ccc2c(c1)c(=O)n(Cc1ccc(C#N)cc1)c1nnc(C3CCCC3)n21 [Example 9, 4-(4-cyanobenzyl)-1-cyclopentyl-7-(N-methylamino)-4H-[1,2,4]triazolo[4,3-a]quinazolin-5-one]",2,
"CNc1ccc2c(c1)c(=O)n(Cc1ccccc1)c1nnc(C3CCCC3)n21 [Example 7, 4-benzyl-1-cyclopentyl-7-methylamino-4H-[1,2,4]triazolo[4,3-a]quinazolin-5-one]",75,
"CC(=O)N(C)c1ccc2c(c1)c(=O)n(Cc1ccc(C#N)cc1)c1nnc(C3CCCC3)n21 [Example 8, 4-(4-cyanobenzyl)-1-cyclopentyl-7-(N-methylacetamido)-4H-[1,2,4]triazolo[4,3-a]quinazolin-5-one]",1300,
"O=c1c2cc(Br)ccc2n2c(C3CCCC3)nnc2n1Cc1ccccc1 [Example 10, 4-benzyl-7-bromo-1-cyclopentyl-4H-[1,2,4]triazolo[4,3-a]quinazolin-5-one]",61,
